Where a SMILES comes first, the peptide text is derived from it. The star is where a group is joined. Oxazole(5-CO) = O=C(c1cnco1)*; Crotonyl(E) = C/C=C/C(=O)*; 2Furoyl = O=C(c1ccco1)*; Butyryl = CCCC(=O)*

The experiment concerns the target T1, AF9 YEATS (His-AF9) (Homo sapiens, UniProt P42568).
T1 construct: His-AF9 (aa 1-149, EpiCypher); purchased EpiCypher
T1 sequence (P42568 1-149): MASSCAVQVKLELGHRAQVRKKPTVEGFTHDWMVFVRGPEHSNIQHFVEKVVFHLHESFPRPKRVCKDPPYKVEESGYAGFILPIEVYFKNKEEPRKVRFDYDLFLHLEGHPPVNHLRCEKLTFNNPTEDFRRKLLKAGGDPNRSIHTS
The experiment in a line: Biolayer interferometry (BLI) binding to AF9 YEATS. The procedure: These potent inhibitors were then tested to confirm their selectivity for ENL YEATS over AF9 YEATS since the two YEATS domains share high sequence and structure homology. One potential of using ncAA-containing phage display for active site-directed ligand search is the possibility of amino acids flanking the ncAA in a selected peptide to selectively engage the target over a close homologue. We wanted to validate this potential as well. Selective targeting of ENL YEATS is also preferred in leukemia interventions as it plays a pivotal role in the progression and maintenance of several AMLs and poses minimal harm to normal hematopoietic stem cells upon inhibition. […] We propose that the selectivity arises from the peptide residues interacting with surface areas adjacent to the active site of ENL YEATS. […] Similarly, BLI analyses were conducted to examine preferential binding of inhibitors to ENL YEATS. […] Two previous publications have documented peptide-based YEATS inhibitors featuring alkylated lysine residues.[42],[43] […]
Biolayer Interferometry to Validate ENL Ligands:
His-ENL, His-AF9 (aa 1-149, EpiCypher), His-GAS41 (aa 15-160, EpiCypher), and YEATS2-His (aa 200-345, EpiCypher) were reconstituted in water and diluted into assay buffer (20mM Tris, 300 mM NaCl, pH 7.9) for immobilization onto Octet Ni-NTA biosensors (Sartorius). Lyophilized peptides were dissolved in DMF and diluted to designated concentrations in assay buffer. Biolayer interferometry assays were performed in 96 well plates (GreinerBio-One, polypropylene, flat-bottom) using an Octet Red96 System (Sartorius). Wells were filled with 200 μL of assay buffer, blocking buffer (assay buffer + 0.1% BSA), protein solution, peptide solution, regeneration solution, and reload solution. For immobilization, His-tagged proteins were immobilized onto Ni-NTA sensors at 20 for 600 s. Sensors were then dipped into blocking buffer for 180 s, assay […] buffer for 300 s, peptide solution for 300 s, and back to assay buffer for 300 s. If multiple samples were tested, Ni-NTA sensors can be reconditioned in regeneration (10 mM glycine, pH 1.7) solution followed by reload solution (10 mM NiCl2) for 30 and 60 s, respectively. Measurements were carried out at 30 °C. Data were analyzed within the ForteBio Data Analysis software. […]
The AlphaScreen assay was carried out in 384-well plates. […] AlphaScreen-signals were detected by a multi-mode microplate reader (BioTeK Synergy Neo2) equipped with an Alpha-laser (PerkinElmer). The KD value was determined from the plot using nonlinear regression of variable slope (four parameters) and curve fitting performed in GraphPad Prism. […]
The AlphaScreen assay conditions are essential the same as the previous described. […] IC50 values were determined from the plot using […]
On the technique in general: In BLI a coated tip is dipped into the sample, and binding shifts an interference pattern.
For the compound `CC(C)[C@H](NC(=O)[C@H](CC(=O)O)NC(=O)[C@@H](N)Cc1ccc(O)cc1)C(=O)N[C@@H](Cc1ccc(O)cc1)C(=O)N[C@@H](CS)C(=O)N[C@@H](Cc1ccc(O)cc1)C(=O)N[C@@H](CCCCNC(=O)c1cnco1)C(N)=O` [ENL-S1o] (H-YDVYCYK(Oxazole(5-CO))-NH2), the Kd – broadly, the constant that tells how readily two partners part at equilibrium – came to 55.1 nM. The value for `CC(C)[C@H](NC(=O)[C@H](CC(=O)O)NC(=O)[C@@H](N)Cc1ccc(O)cc1)C(=O)N[C@@H](Cc1ccc(O)cc1)C(=O)N[C@@H](CS)C(=O)N[C@@H](Cc1ccc(O)cc1)C(=O)N[C@@H](CCCCNC(=O)c1ccco1)C(N)=O` [ENL-S1f] (H-YDVYCYK(2Furoyl)-NH2) was 144 nM; that for `C/C=C/C(=O)NCCCC[C@H](NC(=O)[C@H](Cc1ccc(O)cc1)NC(=O)[C@H](CS)NC(=O)[C@H](Cc1ccc(O)cc1)NC(=O)[C@@H](NC(=O)[C@H](CC(=O)O)NC(=O)[C@@H](N)Cc1ccc(O)cc1)C(C)C)C(N)=O` [ENL-S1c] (H-YDVYCYK(Crotonyl(E))-NH2) was 147 nM; that for `CCCC(=O)NCCCC[C@H](NC(=O)[C@H](Cc1ccc(O)cc1)NC(=O)[C@H](CS)NC(=O)[C@H](Cc1ccc(O)cc1)NC(=O)[C@@H](NC(=O)[C@H](CC(=O)O)NC(=O)[C@@H](N)Cc1ccc(O)cc1)C(C)C)C(N)=O` [ENL-S1] (H-YDVYCYK(Butyryl)-NH2) was 205 nM.
